Ki data for 25 compounds are collected here from patent US20060194837A1, “Tetrahydroisoquinoline compounds” (priority 2004, published 2006).

Like-named read-outs stand apart in the source and are kept apart here.

The target in assay [1] is T1, human H3 receptor (Homo sapiens, UniProt Q9Y5N1).
T1 construct: expressed in transfected cells
Nature of the assay: H3 receptor binding (N-[3H]-α-methylhistamine displacement). The settings on record: membranes of SK-N-MC cells expressing cloned human H3 receptor, 0.8 nM N-[3H]-α-methylhistamine, 60 min at 25° C.

Assay [2] deals with T2, Rat SERT (Rattus norvegicus, UniProt P31652).
T2 construct: A rat brain without cerebellum (Zivic Laboratories, Inc.—Pittsburgh, Pa.) was homogenized; tissue Zivic Laboratories, Inc; host or cells: rat brain without cerebellum, membranes
Nature of the assay: Rat brain SERT binding ([3H]-citalopram displacement). The settings on record: rat brain membranes without cerebellum, 0.6 nM [3H]-citalopram, 60 min at 25° C. As to the method: The supernatant was removed and re-centrifuged at 15,000 rpm for 30 min. […] Membranes were incubated with 0.6 nM [^3H]-Citalopram plus/minus test compounds for 60 min at 25° C. and harvested by rapid filtration over GF/C glass fiber filters (pretreated with 0.3% polyethylenimine) followed by four washes with ice-cold buffer.

In assay [3] the target is T3, human SERT (Homo sapiens, UniProt P31645).
T3 construct: expressed in transfected cells; host or cells: HEK293 membranes
Nature of the assay: Human SERT binding (3H-citalopram displacement). The settings on record: HEK293 membranes expressing human SERT, rt 1 h. Here is the method: Homogenized HEK293 (Human Embryonic Kidney) membranes expressing the human SERT were incubated with ^3H-citalopram (SERT) at rt for 1 h in 50 mM Tris, 120 mM NaCl, 5 mM KCl (pH 7.4). […] The membranes were washed and the radioactivity was counted as above.

Usually Ki stands for a measure of affinity in units of concentration, obtained from inhibition or displacement.

T1 sequence (Q9Y5N1 whole entry): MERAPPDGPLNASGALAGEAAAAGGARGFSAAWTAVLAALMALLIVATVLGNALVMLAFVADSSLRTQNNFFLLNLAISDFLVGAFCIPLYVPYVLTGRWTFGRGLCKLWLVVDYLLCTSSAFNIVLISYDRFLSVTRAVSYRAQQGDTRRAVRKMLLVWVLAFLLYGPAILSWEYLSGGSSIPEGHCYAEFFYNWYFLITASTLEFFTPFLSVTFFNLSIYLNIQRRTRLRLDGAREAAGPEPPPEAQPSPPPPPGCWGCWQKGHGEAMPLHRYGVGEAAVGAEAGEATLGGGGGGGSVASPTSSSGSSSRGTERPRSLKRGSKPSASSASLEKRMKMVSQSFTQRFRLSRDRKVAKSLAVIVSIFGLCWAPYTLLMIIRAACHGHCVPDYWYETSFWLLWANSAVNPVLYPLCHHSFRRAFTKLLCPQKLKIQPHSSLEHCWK
T3 sequence (P31645 whole entry): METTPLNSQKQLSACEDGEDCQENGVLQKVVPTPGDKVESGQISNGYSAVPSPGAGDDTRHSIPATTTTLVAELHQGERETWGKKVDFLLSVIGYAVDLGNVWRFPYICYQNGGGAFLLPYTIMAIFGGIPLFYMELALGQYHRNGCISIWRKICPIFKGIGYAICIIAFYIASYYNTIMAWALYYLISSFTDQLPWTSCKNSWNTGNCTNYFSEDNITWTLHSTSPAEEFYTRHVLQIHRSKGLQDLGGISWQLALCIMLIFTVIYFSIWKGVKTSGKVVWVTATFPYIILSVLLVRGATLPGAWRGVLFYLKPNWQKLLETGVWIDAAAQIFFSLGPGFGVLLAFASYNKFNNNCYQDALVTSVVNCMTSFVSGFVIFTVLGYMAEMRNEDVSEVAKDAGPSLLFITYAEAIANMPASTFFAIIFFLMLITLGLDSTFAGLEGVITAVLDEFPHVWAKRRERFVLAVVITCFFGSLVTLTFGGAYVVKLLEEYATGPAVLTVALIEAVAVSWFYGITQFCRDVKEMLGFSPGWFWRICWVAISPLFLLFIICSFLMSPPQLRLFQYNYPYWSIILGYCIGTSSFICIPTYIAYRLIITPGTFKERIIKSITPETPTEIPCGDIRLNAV
T2 sequence (P31652 whole entry): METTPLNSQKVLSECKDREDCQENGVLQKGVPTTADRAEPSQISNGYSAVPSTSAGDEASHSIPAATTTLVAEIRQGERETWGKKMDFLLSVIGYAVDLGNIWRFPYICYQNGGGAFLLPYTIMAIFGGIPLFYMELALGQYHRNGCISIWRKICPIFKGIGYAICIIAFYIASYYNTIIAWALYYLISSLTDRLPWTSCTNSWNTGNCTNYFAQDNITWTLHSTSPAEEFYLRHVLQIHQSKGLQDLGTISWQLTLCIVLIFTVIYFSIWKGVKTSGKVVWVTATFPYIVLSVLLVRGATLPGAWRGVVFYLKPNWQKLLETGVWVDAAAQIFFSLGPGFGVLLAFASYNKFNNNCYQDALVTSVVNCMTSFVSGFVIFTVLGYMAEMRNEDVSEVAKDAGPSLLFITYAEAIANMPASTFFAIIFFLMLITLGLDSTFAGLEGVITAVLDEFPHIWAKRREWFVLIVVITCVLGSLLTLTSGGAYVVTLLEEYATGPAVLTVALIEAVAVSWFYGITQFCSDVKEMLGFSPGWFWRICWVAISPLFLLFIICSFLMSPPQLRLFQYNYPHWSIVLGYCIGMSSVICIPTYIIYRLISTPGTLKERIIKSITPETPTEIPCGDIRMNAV

Turning to `COc1ccc(C2CN(C)Cc3cc(OCCCN4CCC(CO)CC4)ccc32)cc1` (stereo not drawn) [Example 22, (1-{3-[4-(4-Methoxy-phenyl)-2-methyl-1,2,3,4-tetrahydro-isoquinolin-7-yloxy]-propyl}-piperidin-4-yl)-methanol], the inhibition constant (Ki) in assay [1] stood at 11 nM; in assay [2] (read-out: Rat SERT Ki), 3 nM; in assay [3], 5 nM.

Regarding `COc1ccc(C2CN(C)Cc3cc(OCCCN4CCCC(CO)C4)ccc32)cc1` (stereo not drawn) [Example 23, (1-{3-[4-(4-Methoxy-phenyl)-2-methyl-1,2,3,4-tetrahydro-isoquinolin-7-yloxy]-propyl}-piperidin-3-yl)-methanol], the Ki in assay [1] came to 2 nM; in assay [2] (read-out: Rat SERT Ki), 2 nM; in assay [3] it was 4 nM.

For the compound `COc1ccc(C2CN(C)Cc3cc(OCCCN4CCCCC4CO)ccc32)cc1` (stereo not drawn) [Example 24, (1-{3-[4-(4-Methoxy-phenyl)-2-methyl-1,2,3,4-tetrahydro-isoquinolin-7-yloxy]-propyl}-piperidin-2-yl)-methanol], the Ki turned out to be 2 nM in assay [1], 2 nM in assay [2] (read-out: Rat SERT Ki) and 3 nM in assay [3].

In the case of `COc1ccc(C2CN(C)Cc3cc(OCCCN4CCCC(C(F)(F)F)C4)ccc32)cc1` (stereo not drawn) [Example 25, 4-(4-Methoxy-phenyl)-2-methyl-7-[3-(3-trifluoromethyl-piperidin-1-yl)-propoxy]-1,2,3,4-tetrahydro-isoquinoline], the Ki was 7 nM in assay [1], 10 nM in assay [2] (read-out: Rat SERT Ki) and 6 nM in assay [3].

On to `COc1ccc(C2CN(C)Cc3cc(OCCCN4CCC(CCO)CC4)ccc32)cc1` (stereo not drawn) [Example 26, 2-(1-{3-[4-(4-Methoxy-phenyl)-2-methyl-1,2,3,4-tetrahydro-isoquinolin-7-yloxy]-propyl}-piperidin-4-yl)-ethanol], for which the results for the Ki in assay [1], in assay [2] (read-out: Rat SERT Ki) and in assay [3] were 12 nM, 2 nM and 5 nM, respectively.

For the compound `COc1ccc(C2CN(C)Cc3cc(OCCCN4CCC[C@@H]4CO)ccc32)cc1` (stereo partly drawn) [Example 30, (1-{3-[4-(4-Methoxy-phenyl)-2-methyl-1,2,3,4-tetrahydro-isoquinolin-7-yloxy]-propyl}-pyrrolidin-(2R)-yl)-methanol], the inhibition constant Ki in assay [1] was determined as 3 nM; in assay [2] (read-out: Rat SERT Ki) it was 2 nM; in assay [3], 2 nM.

As to `COc1ccc(C2CN(C)Cc3cc(OCCCN4CC[C@@H](O)C4)ccc32)cc1` (stereo partly drawn) [Example 31, 1-{3-[4-(4-Methoxy-phenyl)-2-methyl-1,2,3,4-tetrahydro-isoquinolin-7-yloxy]-propyl}-(R)-pyrrolidin-3-ol], the Ki in assay [1] worked out at 2 nM; in assay [2] (read-out: Rat SERT Ki), 2 nM; in assay [3], 3 nM.

Regarding `COc1ccc(C2CN(C)Cc3cc(OCCCN4C[C@@H](C)O[C@@H](C)C4)ccc32)cc1` (stereo partly drawn) [Example 32, 7-[3-(2,6-Dimethyl-morpholin-4-yl)-propoxy]-4-(4-methoxy-phenyl)-2-methyl-1,2,3,4-tetrahydro-isoquinoline], the Ki in assay [1] was determined as 21 nM; in assay [2] (read-out: Rat SERT Ki), 8 nM; in assay [3], 9 nM.

On to `COc1ccc(C2CN(C)Cc3cc(OCCCN4CCCC4C)ccc32)cc1` (stereo not drawn) [Example 35, 4-(4-Methoxy-phenyl)-2-methyl-7-[3-(2-methyl-pyrrolidin-1-yl)-propoxy]-1,2,3,4-tetrahydro-isoquinoline], for which the Ki in assay [1] is 1 nM; in assay [2] (Rat SERT Ki (nM)), 2 nM; in assay [3], 3 nM.

Consider `COc1ccc(C2CN(C)Cc3cc(OCCCN4CCCCC4CCO)ccc32)cc1` (stereo not drawn) [Example 36, 2-(1-{3-[4-(4-Methoxy-phenyl)-2-methyl-1,2,3,4-tetrahydro-isoquinolin-7-yloxy]-propyl}-piperidin-2-yl)-ethanol], for which the Ki amounted to 7 nM in assay [1], 2 nM in assay [2] (read-out: Rat SERT Ki) and 3 nM in assay [3].

For `COc1ccc(C2CN(C)Cc3cc(OCCCN4CCCC(F)C4)ccc32)cc1` (stereo not drawn) [Example 39, 7-[3-(3-Fluoro-piperidin-1-yl)-propoxy]-4-(4-methoxy-phenyl)-2-methyl-1,2,3,4-tetrahydro-isoquinoline], the Ki in assay [1], in assay [2] (read-out: Rat SERT Ki) and in assay [3] was 3 nM throughout.

On to `CCN(CCCOc1ccc2c(c1)CN(C)CC2c1ccc(OC)cc1)CCOC` (stereo not drawn) [Example 40, Ethyl-(2-methoxy-ethyl)-{3-[4-(4-methoxy-phenyl)-2-methyl-1,2,3,4-tetrahydro-isoquinolin-7-yloxy]-propyl}-amine], for which the values for the inhibition constant Ki in assay [1], in assay [2] (read-out: Rat SERT Ki) and in assay [3] were 20 nM, 9 nM and 8 nM, respectively.

As to `COc1ccc(C2CN(C)Cc3cc(OCC(O)CN4CCCCC4)ccc32)cc1` (stereo not drawn) [Example 42, 1-[4-(4-Methoxy-phenyl)-2-methyl-1,2,3,4-tetrahydro-isoquinolin-7-yloxy]-3-piperidin-1-yl-propan-2-ol], the inhibitory constant (Ki) in assay [1] was 3 nM; in assay [2] (read-out: Rat SERT Ki), 3 nM; in assay [3], 8 nM.

Consider `CN1Cc2cc(OCCCN3CCC(F)CC3)ccc2C(c2cccc(Cl)c2)C1` (stereo not drawn) [Example 46, 4-(3-Chloro-phenyl)-7-[3-(4-fluoro-piperidin-1-yl)-propoxy]-2-methyl-1,2,3,4-tetrahydro-isoquinoline], for which the Ki in assay [1] is 3 nM; in assay [2] (read-out: Rat SERT Ki) it was 14 nM; in assay [3], 26 nM.

On to `CN1Cc2cc(OCCCN3CCC(F)CC3)ccc2C(c2ccc(Cl)cc2)C1` (stereo not drawn) [Example 47, 4-(4-Chloro-phenyl)-7-[3-(4-fluoro-piperidin-1-yl)-propoxy]-2-methyl-1,2,3,4-tetrahydro-isoquinoline], for which the inhibitory constant (Ki) came out at 10 nM in assay [1], 27 nM in assay [2] (read-out: Rat SERT Ki) and 11 nM in assay [3].

In the case of `CN1Cc2cc(OCCCN3CCC(F)CC3)ccc2C(c2cccc(F)c2)C1` (stereo not drawn) [Example 48, 4-(3-Fluoro-phenyl)-7-[3-(4-fluoro-piperidin-1-yl)-propoxy]-2-methyl-1,2,3,4-tetrahydro-isoquinoline], the inhibition constant Ki in assay [1] stood at 6 nM; in assay [2] (read-out: Rat SERT Ki), 31 nM; in assay [3], 118 nM.

In the case of `COc1ccc(C2CN(C(C)(C)C)Cc3cc(OCCCN4CCCCC4)ccc32)cc1` (stereo not drawn) [Example 64, 2-tert-Butyl-4-(4-methoxy-phenyl)-7-(3-piperidin-1-yl-propoxy)-1,2,3,4-tetrahydro-isoquinoline], the Ki in assay [1] stood at 1 nM; in assay [2] (read-out: Rat SERT Ki), 222 nM; in assay [3] it was 252 nM.

`CCN1Cc2cc(OCCCN3CCCCC3)ccc2C(c2ccc(OC)cc2)C1` (stereo not drawn) [Example 66, 2-Ethyl-4-(4-methoxy-phenyl)-7-(3-piperidin-1-yl-propoxy)-1,2,3,4-tetrahydro-isoquinoline]: the inhibition constant Ki in assay [1] was found to be 1 nM; in assay [2] (read-out: Rat SERT Ki), 5 nM; in assay [3], 4 nM.

With `COc1ccc(C2CN(C(C)C)Cc3cc(OCCCN4CCCCC4)ccc32)cc1` (stereo not drawn) [Example 68, 2-Isopropyl-4-(4-methoxy-phenyl)-7-(3-piperidin-1-yl-propoxy)-1,2,3,4-tetrahydro-isoquinoline], the Ki in assay [1] stood at 1 nM; in assay [2] (read-out: Rat SERT Ki) it was 22 nM; in assay [3], 89 nM.

Regarding `COc1ccc(C2CN(C)Cc3cc(OCC4CCN(C)CC4)ccc32)cc1` (stereo not drawn) [Example 84, 4-(4-Methoxy-phenyl)-2-methyl-7-(1-methyl-piperidin-4-ylmethoxy)-1,2,3,4-tetrahydro-isoquinoline], the inhibition constant (Ki) was found to be 3 nM in assay [1], 7 nM in assay [2] (read-out: Rat SERT Ki) and 7 nM in assay [3].

Take `COc1cccc(C2CN(C)Cc3cc(OCC4CCN(C(C)C)CC4)ccc32)c1` (stereo not drawn) [Example 91, 7-(1-Isopropyl-piperidin-4-ylmethoxy)-4-(3-methoxy-phenyl)-2-methyl-1,2,3,4-tetrahydro-isoquinoline]: the figures for the Ki in assay [1], in assay [2] (read-out: Rat SERT Ki) and in assay [3] were 1 nM, 11 nM and 11 nM, respectively.

Regarding `COc1cccc(C2CN(C)Cc3cc(OCC4CCN(C)CC4)ccc32)c1` (stereo not drawn) [Example 92, 4-(3-Methoxy-phenyl)-2-methyl-7-(1-methyl-piperidin-4-ylmethoxy)-1,2,3,4-tetrahydro-isoquinoline], the inhibitory constant (Ki) in assay [1] came out at 2 nM; in assay [2] (read-out: Rat SERT Ki), 12 nM; in assay [3] it was 9 nM.

Regarding `CSc1ccc(C2CN(C)Cc3cc(OCC4CCN(C(C)C)CC4)ccc32)cc1` (stereo not drawn) [Example 103, 7-(1-Isopropyl-piperidin-4-ylmethoxy)-2-methyl-4-(4-methylsulfanyl-phenyl)-1,2,3,4-tetrahydro-isoquinoline], the Ki in assay [1] turned out to be 7 nM; in assay [2] (read-out: Rat SERT Ki), 8 nM; in assay [3] it was 3 nM.

As to `CSc1ccc(C2CN(C)Cc3cc(OCC4CCN(C5CCC5)CC4)ccc32)cc1` (stereo not drawn) [Example 104, 7-(1-Cyclobutyl-piperidin-4-ylmethoxy)-2-methyl-4-(4-methylsulfanyl-phenyl)-1,2,3,4-tetrahydro-isoquinoline], the Ki in assay [1] was 11 nM; in assay [2] (read-out: Rat SERT Ki), 5 nM; in assay [3], 3 nM.

For `CCCN1CCC(COc2ccc3c(c2)CN(C)CC3c2ccc(SC)cc2)CC1` (stereo not drawn) [Example 109, 2-Methyl-4-(4-methylsulfanyl-phenyl)-7-(1-propyl-piperidin-4-ylmethoxy)-1,2,3,4-tetrahydro-isoquinoline], the Ki in assay [1] was found to be 8 nM; in assay [2] (read-out: Rat SERT Ki), 10 nM; in assay [3] it was 3 nM.
